Reference: ChEMBL document CHEMBL2074262, “Molecular identification and characterization of novel members of the human organic anion transporter (OATP) family” (Biochem Biophys Res Commun, 2000)

Key:
Assay type in all cases: functional, cell-based
[1] = molecular target: T1, Solute carrier organic anion transporter family member 3A1 (Homo sapiens, UniProt Q9UIG8); assay: TP_TRANSPORTER: uptake in OATP-D-expressing HEK293 cells
T1 sequence (Q9UIG8 whole entry): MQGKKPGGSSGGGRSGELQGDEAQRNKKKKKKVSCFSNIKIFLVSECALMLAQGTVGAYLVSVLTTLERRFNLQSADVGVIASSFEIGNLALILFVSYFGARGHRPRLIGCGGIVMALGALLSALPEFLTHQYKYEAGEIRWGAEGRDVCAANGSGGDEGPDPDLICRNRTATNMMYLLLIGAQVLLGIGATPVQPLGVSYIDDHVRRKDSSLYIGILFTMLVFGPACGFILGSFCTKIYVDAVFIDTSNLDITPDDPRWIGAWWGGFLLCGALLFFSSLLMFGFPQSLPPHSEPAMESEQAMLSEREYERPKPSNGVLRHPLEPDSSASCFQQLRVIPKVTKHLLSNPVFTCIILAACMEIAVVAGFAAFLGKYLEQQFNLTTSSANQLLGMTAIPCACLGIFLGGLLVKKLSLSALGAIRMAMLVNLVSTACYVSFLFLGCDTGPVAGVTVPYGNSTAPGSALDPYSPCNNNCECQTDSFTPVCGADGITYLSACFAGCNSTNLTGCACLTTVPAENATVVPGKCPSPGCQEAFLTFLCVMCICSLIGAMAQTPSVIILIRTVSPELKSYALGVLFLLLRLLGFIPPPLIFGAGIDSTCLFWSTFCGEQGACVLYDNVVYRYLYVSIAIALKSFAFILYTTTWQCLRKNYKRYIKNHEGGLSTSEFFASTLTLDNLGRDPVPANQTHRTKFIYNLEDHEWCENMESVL

[2] = molecular target: T2, Solute carrier organic anion transporter family member 2B1 (Homo sapiens, UniProt O94956); assay: TP_TRANSPORTER: uptake in OATP-B-expressing HEK293 cells
T2 sequence (O94956 whole entry): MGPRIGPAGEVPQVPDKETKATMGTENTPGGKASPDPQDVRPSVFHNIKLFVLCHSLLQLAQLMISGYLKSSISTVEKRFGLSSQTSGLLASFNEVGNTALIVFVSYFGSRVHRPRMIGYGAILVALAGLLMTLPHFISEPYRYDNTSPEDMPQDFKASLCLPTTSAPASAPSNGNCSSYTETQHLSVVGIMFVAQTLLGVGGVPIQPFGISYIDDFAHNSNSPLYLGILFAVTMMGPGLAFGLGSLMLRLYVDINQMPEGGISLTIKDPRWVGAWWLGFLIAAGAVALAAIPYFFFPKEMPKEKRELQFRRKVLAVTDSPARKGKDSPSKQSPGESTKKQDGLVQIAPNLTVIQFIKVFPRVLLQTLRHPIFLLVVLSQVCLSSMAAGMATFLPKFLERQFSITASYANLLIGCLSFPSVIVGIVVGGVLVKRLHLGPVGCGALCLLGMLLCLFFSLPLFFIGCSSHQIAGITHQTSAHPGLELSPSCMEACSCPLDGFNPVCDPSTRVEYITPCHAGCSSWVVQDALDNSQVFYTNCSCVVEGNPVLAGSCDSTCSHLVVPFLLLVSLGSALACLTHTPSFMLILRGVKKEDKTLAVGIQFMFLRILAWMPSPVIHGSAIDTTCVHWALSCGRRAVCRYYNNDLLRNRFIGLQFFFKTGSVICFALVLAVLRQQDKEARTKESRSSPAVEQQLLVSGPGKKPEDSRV

[3] = molecular target: T3, Solute carrier organic anion transporter family member 4A1 (Homo sapiens, UniProt Q96BD0); assay: TP_TRANSPORTER: uptake in OATP-E-expressing HEK293 cells
T3 sequence (Q96BD0 whole entry): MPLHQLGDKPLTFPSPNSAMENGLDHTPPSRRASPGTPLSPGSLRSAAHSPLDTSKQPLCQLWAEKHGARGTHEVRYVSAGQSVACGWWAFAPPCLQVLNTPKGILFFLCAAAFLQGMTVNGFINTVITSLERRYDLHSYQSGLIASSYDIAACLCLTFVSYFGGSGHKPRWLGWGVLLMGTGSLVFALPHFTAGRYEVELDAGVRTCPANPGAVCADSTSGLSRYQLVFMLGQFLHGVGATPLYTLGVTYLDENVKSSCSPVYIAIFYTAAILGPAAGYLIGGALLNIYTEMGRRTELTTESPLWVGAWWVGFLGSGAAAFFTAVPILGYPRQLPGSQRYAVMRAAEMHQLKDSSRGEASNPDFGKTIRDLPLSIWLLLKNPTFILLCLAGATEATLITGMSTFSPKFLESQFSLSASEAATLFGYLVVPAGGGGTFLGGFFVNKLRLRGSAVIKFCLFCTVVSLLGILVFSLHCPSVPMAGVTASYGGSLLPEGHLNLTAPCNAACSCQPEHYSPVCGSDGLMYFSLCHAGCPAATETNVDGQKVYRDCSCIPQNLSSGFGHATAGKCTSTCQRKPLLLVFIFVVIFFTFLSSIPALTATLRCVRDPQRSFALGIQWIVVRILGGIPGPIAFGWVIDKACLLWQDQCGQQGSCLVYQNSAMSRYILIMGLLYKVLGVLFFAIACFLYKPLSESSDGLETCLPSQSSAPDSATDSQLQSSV

[4] = molecular target: T4, Solute carrier organic anion transporter family member 1B1 (Homo sapiens, UniProt Q9Y6L6); assay: TP_TRANSPORTER: uptake in OATP-C-expressing HEK293 cells
T4 sequence (Q9Y6L6 whole entry): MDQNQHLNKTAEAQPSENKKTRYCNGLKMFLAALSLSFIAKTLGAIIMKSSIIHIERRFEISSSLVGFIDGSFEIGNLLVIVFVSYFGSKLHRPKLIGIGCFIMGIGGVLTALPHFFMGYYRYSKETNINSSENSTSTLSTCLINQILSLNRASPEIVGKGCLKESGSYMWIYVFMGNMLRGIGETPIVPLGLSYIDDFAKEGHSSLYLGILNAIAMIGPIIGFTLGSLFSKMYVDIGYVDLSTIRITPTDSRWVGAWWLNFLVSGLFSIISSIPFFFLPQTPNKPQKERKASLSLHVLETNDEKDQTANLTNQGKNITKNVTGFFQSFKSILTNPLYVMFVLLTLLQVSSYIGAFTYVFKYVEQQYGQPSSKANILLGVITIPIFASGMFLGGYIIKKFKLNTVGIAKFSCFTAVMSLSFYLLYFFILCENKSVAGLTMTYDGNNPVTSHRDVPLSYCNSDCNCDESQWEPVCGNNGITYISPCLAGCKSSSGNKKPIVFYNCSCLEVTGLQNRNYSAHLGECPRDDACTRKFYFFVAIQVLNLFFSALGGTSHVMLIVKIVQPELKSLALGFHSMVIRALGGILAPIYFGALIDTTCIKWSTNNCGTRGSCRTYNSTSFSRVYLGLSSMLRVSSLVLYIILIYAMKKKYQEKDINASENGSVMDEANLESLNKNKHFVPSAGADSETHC

Row | Activity [1] | Activity [2] | Activity [3] | Activity [4] | SMILES
1 | substrate [+] | substrate [+] | substrate [+] | substrate [+] | CCCCC[C@H](O)/C=C/[C@H]1[C@H](O)CC(=O)[C@@H]1C/C=C\CCCC(=O)O [DINOPROSTONE]
2 | substrate [+] | – | substrate [+] | – | C[C@]12CC[C@@H]3c4ccc(OS(=O)(=O)O)cc4CC[C@H]3[C@@H]1CCC2=O [ESTRONE SULFURIC ACID]
3 | substrate [+] | substrate [+] | substrate [+] | substrate [+] | CC1(C)S[C@@H]2[C@H](NC(=O)Cc3ccccc3)C(=O)N2[C@H]1C(=O)O [PENICILLIN G]

Row | SMILES | Activity [1] | Activity [2] | Activity [3] | Activity [4]
4 | C[C@]12CC[C@@H]3c4ccc(O)cc4CC[C@H]3[C@@H]1CC[C@@H]2O[C@@H]1O[C@H](C(=O)O)[C@@H](O)[C@H](O)[C@H]1O [ESTRADIOL 17B GLUCURONIDE] | – | – | substrate [+] | –
